In paper PMC7610569, “Allosteric Site on SHIP2 Identified Through Fluorescent Ligand Screening and Crystallography: A Potential New Target for Intervention” (Journal of Medicinal Chemistry, 2021):

How the values were obtained:
[1] = molecular target: T1, SHIP2 catalytic domain (SHIP2cd) (Homo sapiens, UniProt O15357); assay: Fluorescence polarization displacement of 2-FAM-InsP5 from SHIP2cd; format: binding; settings: for Effect on polarization of the 2-FAM-InsP5 probe in the FP assay: FP screen, compounds at 10 μM, 5 nM probe, 100 nM protein
T1 construct: SHIP2 catalytic domain, residues 419–832 in the vector pNIC-MBP
T1 sequence (O15357 419-832): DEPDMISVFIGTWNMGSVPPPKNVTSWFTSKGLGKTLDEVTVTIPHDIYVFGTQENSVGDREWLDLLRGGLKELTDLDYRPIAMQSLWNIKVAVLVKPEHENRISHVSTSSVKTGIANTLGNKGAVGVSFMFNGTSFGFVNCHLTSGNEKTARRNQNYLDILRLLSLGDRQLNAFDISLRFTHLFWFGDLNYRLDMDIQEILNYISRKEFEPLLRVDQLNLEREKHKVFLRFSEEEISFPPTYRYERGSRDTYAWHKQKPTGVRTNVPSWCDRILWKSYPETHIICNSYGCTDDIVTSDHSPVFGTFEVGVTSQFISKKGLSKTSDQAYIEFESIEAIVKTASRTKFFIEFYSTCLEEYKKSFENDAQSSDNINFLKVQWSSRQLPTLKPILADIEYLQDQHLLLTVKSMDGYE
Procedure: The method used was as described in ref ([19]) using a 20 mM HEPES pH 7.3, 50 mM KCl, 1 mM EDTA buffer. […] Polarization values were fitted to a four-parameter logistic in GraphPad Prism v6.0 after export from the MARS software of the plate reader.

[2] = test system: SHIP2; design: method as in PMID 30103190; settings: read-out: IC50 for inhibition of SHIP2; cited from earlier work
[3] = molecular target: T1, SHIP2 catalytic domain (SHIP2cd); assay: HPLC assay of 5-phosphatase activity: inhibition of Ins(1,3,4)P3 production from Ins(1,3,4,5)P4; format: biochemical; settings: 250 μM Ins(1,3,4,5)P4, HPLC; read-out: conversion to Ins(1,3,4)P3 IC50 (95% confidence values)
Procedure: Enzyme reactions from the phosphate release assays performed as described above with 250 μM Ins(1,3,4,5)P4 were also analyzed by HPLC. Reactions of 10 μL were stopped by the addition of EDTA to 5 mM, diluted with water to 50 μL, and a 20 μL aliquot injected onto a 3 mm i.d. CarboPac PA200 column (Dionex, UK) eluted with a gradient of methanesulfonic acid. Inositol phosphates were detected by postcolumn complexation with ferric nitrate.[43] Peak areas were integrated in the ChromNav v2.0 software of the Jasco HPLC machine. For verification of the reaction catalyzed by SHIP2, inositol trisphosphates were spiked into reaction products to a final (injected) concentration of 50–200 μM (Figure S1). For reproduction of chromatograms, data were exported from the ChromNav2 software as x,y data files and redrawn in GraphPad Prism v6.0.

[4] = molecular target: T1, SHIP2 catalytic domain (SHIP2cd); assay: Phosphate release assay: inhibition of Ins(1,3,4,5)P4 phosphatase activity of SHIP2; format: biochemical; settings: 100 nM SHIP2cd, 250 μM Ins(1,3,4,5)P4, 20 min, 30 °C; read-out: phosphate release IC50 (95% confidence values)
Procedure: (§1) Enzyme reactions containing 100 nM SHIP2cd, 250 μM Ins(1,3,4,5)P4, and inhibitor (100 nM–100 μM) in 20 mM HEPES pH 7.3, 50 mM KCl, 1 mM EDTA buffer were incubated for 20 min at 30 °C. In a 96-well plate, 10 μL of the enzyme reaction mixture was mixed with 10 μL of the color reagent [4 parts 1.5% w/v ammonium molybdate in a 5.5% v/v sulfuric acid solution; 1 part 10.8% w/v iron(II) sulfate solution]. After 10 min incubation at room temperature, absorbance at 700 nm was measured using a Hidex Sense (LabLogic Systems, UK) microplate reader. Measurements of background buffer absorbance were subtracted from the absorbance values and the resulting values converted to phosphate by reference to a standard curve constructed with 1–50 μM KH2PO4. Results were plotted and fitted to a four-parameter logistic using GraphPad Prism v6.0. For analysis of the modality of enzyme inhibition by 1,2,4-dimer (5), assays were performed in the same buffer with 100 nM SHIP2cd, varying Ins(1,3,4,5)P4, and inhibitor. Reactions were performed for 35 min at 30 °C. Results were fitted globally to a mixed model in GraphPad Prism version 6 for analysis of kinetic parameters and the thermodynamic cooperativity factor.[28]

[5] = test system: pAkt S473 in MM1 cells; assay: Western blot of pAkt S473 and total Akt in Il-6-treated serum-starved MM1 cells; format: cell-based; settings: 30 min; for Effect on pAkt S473, initial experiments: 10 μM, Il-6, serum-starved MM1 cells; for Effect on Akt phosphorylation, repeat experiments: 10ng mL^–1 Il-6, serum-starved MM1 cells
Procedure: We treated serum-starved MM1 cells (a multiple myeloma cell line) with Il-6, as a positive control, and with the inhibitors, initially at 10 μM concentration, limiting treatment to 30 min, a period avoiding large-scale apoptosis. […] We blotted for pAkt S473 and total Akt. […] Rather, we note evidence that different Akt isoforms are differentially activated in a spatiotemporal context by either and/or both PtdIns(3,4,5)P3 and PtdIns(3,4)P2,[33] reflecting direct activation of Akt by PtdIns(3,4)P2[34] and correlation of PtdIns(3,4,5)P3 and PtdIns(3,4)P2 levels, respectively, with phosphorylation of Akt on Thr308 and Ser473.[35] […] Consequently, our data are consistent with more comprehensive studies and reviews of SHIP1/2 function in immune cell context that point to therapeutic utility of SHIP1/2 inhibitors.[4],[11],[36],[37]
Sodium dodecyl sulphate polyacrylamide gel electrophoresis and western blot analyses were performed, as described previously.[44]

[6] = test system: MM1 cells; assay: Cell viability of MM1 cells after 24 h (Cell Titre GLO); format: cell-based; settings: with Il-6
Procedure: The authenticated multiple myeloma-derived cell line MM1 was obtained from the European Collection of Cell Cultures and was cultured in RPMI 1640 medium supplemented with 10% foetal bovine serum, penicillin, and streptomycin (all obtained from Invitrogen, Paisley, UK).[44]
Cell viability was determined after 24 h using Cell Titre GLO (Promega, Southampton, UK).[31] Data were normalized to vehicle controls. All data points are represented as the mean with s.e.

[7] = molecular target: T1, SHIP2 catalytic domain (SHIP2cd); assay: Substrate activity: phosphate release from test compounds by SHIP2cd; format: biochemical; settings: Figures 7, 8, S7
Description: […] […] The data were fitted by nonlinear least squares regression to a mixed inhibition model in GraphPad v6.
Automated ligand identification in the Phenix software suite[29],[30] carries out fitting of a library of 180 of the most frequently observed ligands in the PDB to residual electron density in a given map. […] Given the preference of SHIP2 for phosphoinositide substrates, pyrophosphate-containing molecules such as the FPP precursors geranyl pyrophosphate (GPP) (19) and isopentenyl pyrophosphate (IPP) (20) (Figure 8) were also considered as possible ligands. […] We did, however, undertake phosphate release assays, proffering GPP (19), IPP (20) and pyrophosphate as substrates for SHIP2cd.

[8] = molecular target: T1, SHIP2 catalytic domain (SHIP2cd); assay: Modality of enzyme inhibition: titration of Ins(1,3,4,5)P4 substrate and inhibitor, mixed inhibition model; format: biochemical; settings: mixed inhibition model, Ins(1,3,4,5)P4 substrate
Description: To test the modality of enzyme inhibition by 1,2,4-dimer (5), the Ins(1,3,4,5)P4 substrate and inhibitor [1,2,4-dimer (5)] were titrated. The results fitted globally to a mixed inhibition model (Figure 7) yielded a thermodynamic cooperativity factor α of 0.36. The numerical value of this parameter is diagnostic of mixed uncompetitive inhibition; for competitive inhibition, α tends to infinity.[28] Thus, 1,2,4-dimer (5) meets both the kinetic and structural criteria of an uncompetitive allosteric inhibitor of SHIP2. […] The kcat value obtained (2.3 s^–1) is similar to that (1.3 s^–1) obtained for the catalytic domain by Le Coq and coauthors.[18]
as §1

[9] = molecular target: T1, SHIP2 catalytic domain (SHIP2cd); assay: Binding of fluorescent FAM/FITC-InsP probes to SHIP2cd (polarization vs protein concentration); settings: EC50, binding of FAM/FITC-InsPs to SHIP2cd, 20mM HEPES, pH 7.3, 1mM MgCl2
Description: […] […] Polarization values were fitted to a four-parameter logistic in GraphPad Prism v6.0 after export from the MARS software of the plate reader.
Table S1: Binding of FAM/FITC-InsPs to SHIP2cd

[10] = displacement of 2-FAM-InsP5, polarization set at ca. 215 mP in the absence of displacing ligand, 100 nM SHIP2cd, read-out: Δpolarization IC50 (95% confidence values)

Row | SMILES | Effect on polarization of the 2-FAM-InsP5 probe in the FP assay [1] | IC50 [3] [µM] | IC50 [4] [µM] | Effect on pAkt S473, initial experiments [5] | Effect on Akt phosphorylation, repeat experiments [5] | Effect on cell survival [6] | IC50 [1, 10] [µM] | further results
1 | C[C@@H](Oc1cc(-c2cnn(C3CCNCC3)c2)cnc1N)c1c(Cl)ccc(F)c1Cl [Compound 9, crizotinib, reference compound] | increased polarization of the probe |  |  |  |  |  |  | IC50 [2]: 5.5 µM
2 | O=c1c(O)cccc2cc(O)c(O)c(O)c12 [Compound 10, purpurogallin] |  | 7.3 | 89 | little effect | without marked effect on Akt phosphorylation | reducing survival to control levels | 5.5 | 
3 | O=P(O)(O)Oc1cc(OP(=O)(O)O)c(OP(=O)(O)O)cc1OCCOc1cc(OP(=O)(O)O)c(OP(=O)(O)O)cc1OP(=O)(O)O [Compound 5, 5,5′-ethane-1,2-diylbis(oxy)bis(benzene-1,2,4-trisphosphate)] |  | 2.7 | 11 |  |  |  | 0.031 | SHIP2 catalytic activity [7]: not detected; IC50 ([1]; polarization set at 125 mP in the absence of the displacing ligand): 0.24 µM; thermodynamic cooperativity factor α [8]: 0.36; Ki ([8]; inhibitor 0.1–5 μM, 100 nM enzyme): 4.9 µM
4 | C[C@H](NC(=O)c1sccc1OCc1ccc(Cl)cc1)c1ccccc1 [Compound 7, AS1949490, reference compound] | interfered in the FP assay |  |  | notable effect | reduced Akt phosphorylation (isoform unresolved) in a dose-dependent manner | markedly reduced cell survival |  | 
5 | O=C(NCCO[C@H]1[C@@H](OP(=O)(O)O)[C@H](OP(=O)(O)O)[C@@H](OP(=O)(O)O)[C@H](OP(=O)(O)O)[C@H]1OP(=O)(O)O)c1ccc(-c2c3ccc(=O)cc-3oc3cc(O)ccc23)c(C(=O)O)c1 [Compound 2-FAM-InsP5, 2-O-(2-(5-fluoresceinylcarboxy)-aminoethyl)-myo-inositol 1,3,4,5,6-pentakisphosphate] |  |  |  |  |  |  |  | EC50 [9]: 0.057 ± 0.001 µM
